Assay results published in US20120015939A1, “TOPICAL TREATMENT OF NEUROPATHIC PAIN AND METHODS OF DIAGNOSIS” (Arcion Therapeutics, Inc., priority 2010, published 2012).
Where two headings read alike, the source gives them in different places.

What was measured:
[1] = test system: painful diabetic neuropathy; settings: cited from earlier work
[2] = test system: pain associated with painful diabetic neuropathy (PDN)
Method: Pain was assessed each day using a pain diary using a standardized numerical pain rating scale (NPRS). The average pain for each week was calculated and the difference from baseline was determined (week x minus baseline). […] The baseline pain scores were imputed for missing data arising from premature withdrawal from the study (BOCF, baseline observation carried forward).
Capsaicin 0.1% was applied to the pretibial area between the knee and ankle in each patient. The area was occluded for 30 minutes, at which time patients rated the painfulness of the capsaicin stimulus. It was reasoned that in patients with PDN that the afferented group would detect and rate the capsaicin stimulus as painful, while the deafferented group would fail to detect the stimulus.

[3] = test system: painful diabetic neuropathy; settings: systemic clonidine by transdermal patches; cross-over; cited from earlier work
[4] = in vivo; cited from earlier work
clinical = settings: human, in vivo
From the text: In study CLO-027, blood samples for PK analysis were obtained at baseline, and at Weeks 2 and 12 of treatment.

[5] = topical 0.1% and 0.2% clonidine
Method: The dosage formulation is administered from once a day to several times a day, depending on the patient. […] The dose is determined by the region of pain. […] The area treated is constrained by the systemic dosing.

Compound: Clc1cccc(Cl)c1N=C1NCCN1 [clonidine]
- Pain reduction relative to placebo ([1]; responders rechallenged at highest patch dosage, p<0.015): modest although statistically significant
- Patients considered clonidine responders ([1]; twelve of forty-one patients who completed the initial course of treatment): 29%
- Efficacy over placebo in relieving diabetic pain (change in NPRS over time) ([2]; capsaicin pain rating of two or more, 0 to 10 scale (FIG. 4C)): significantly superior to placebo
- Efficacy over placebo in relieving diabetic pain (change in NPRS over time) ([2]; patients who did not detect the capsaicin stimulus (FIG. 4A)): no efficacy over placebo
- Efficacy over placebo in relieving diabetic pain (change in NPRS over time) ([2]; subjects who detected capsaicin, pain rating > 0 (FIG. 4B)): significantly superior to placebo
- Difference in pain between clonidine patches and placebo patches [3]: no statistically significant difference
- Lower threshold blood level considered necessary to treat hypertension [4]: 0.200 ng/mL
- concentration at 2 weeks (clinical): 0.017 ng/mL
- concentration at 12 weeks (clinical): 0.019 ng/mL
- Mean blood level [5]: below 0.1 ng/mg
- Patients with no detectable clonidine in the blood [5]: one third of patients had no detectable clonidine in the blood
